Results as given in BindingDB's records for doi:10.1016/j.bioorg.2016.08.011 (Recep Tayyip Erdogan University, 2016).

These compounds were tested against Alpha-glucosidase MAL12 (Saccharomyces cerevisiae (strain ATCC 204508 / S288c), UniProt P53341) (assay: α-Glucosidase inhibition assay). Conditions: pH 6.8.
Protocol: α-Glucosidase inhibition assay was performed spectrophotometrically. α-Glucosidase from Saccharomyces cerevisiae (Sigma-Aldrich) was dissolved in phosphate buffer (pH 6.8, 50 mM). Test compounds were dissolved in DMSO. In 96-well microtiter plates, 20 µL of test sample, 20 µL of enzyme (20 mU/mL) and 135 µL of buffer were added and incubated for 15 min at 37 °C. After incubation, 25 µL of p-nitrophenyl-α-D-glucopyranoside (2 mM, Sigma Aldrich) was added and change in absorbance was monitored for 20 min at 400 nm. Test compound was replaced by DMSO (10% final) as control. […] The assays were done in triplicate.

Chain of Alpha-glucosidase MAL12 (P53341 whole entry): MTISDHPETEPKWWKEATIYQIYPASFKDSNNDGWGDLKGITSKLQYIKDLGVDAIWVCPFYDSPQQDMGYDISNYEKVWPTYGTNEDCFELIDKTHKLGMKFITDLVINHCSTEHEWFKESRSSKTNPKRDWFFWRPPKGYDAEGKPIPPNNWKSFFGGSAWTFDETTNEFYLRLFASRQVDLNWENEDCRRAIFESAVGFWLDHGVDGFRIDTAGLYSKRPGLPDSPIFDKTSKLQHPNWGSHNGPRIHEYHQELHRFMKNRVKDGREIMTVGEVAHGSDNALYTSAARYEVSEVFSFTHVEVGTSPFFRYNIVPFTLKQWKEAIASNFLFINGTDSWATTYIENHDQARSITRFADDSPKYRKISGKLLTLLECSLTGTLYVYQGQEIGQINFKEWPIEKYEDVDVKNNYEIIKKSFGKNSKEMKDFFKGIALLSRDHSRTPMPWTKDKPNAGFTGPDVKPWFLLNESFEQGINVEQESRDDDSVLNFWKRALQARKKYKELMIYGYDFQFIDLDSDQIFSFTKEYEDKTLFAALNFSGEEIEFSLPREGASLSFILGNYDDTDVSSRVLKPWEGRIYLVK

IC50 [µM]	SMILES
254	Sc1nnc(Cn2c(Cc3ccc(Cl)cc3Cl)nc3ccccc32)o1 [5-{[2-(2,4-Dichlorobenzyl)-1H-benzimidazol-1-yl]methyl}-1,3,4-oxadiazole-2-thiol (5a)]
158	Clc1ccc(Cc2nc3ccccc3n2Cc2nnc(Nc3ccccc3)s2)c(Cl)c1 [5-{[2-(2,4-Dichlorobenzyl)-1H-benzimidazol-1-yl]methyl}-N-phenyl-1,3,4-thiadiazol-2-amine (8a)]
26.9	O=[N+]([O-])c1ccc2nc(Cc3ccc(Cl)cc3Cl)n(Cc3nnc(S)o3)c2c1 [5-{[2-(2,4-Dichlorobenzyl)-6-nitro-1H-benzimidazol-1-yl]methyl}-1,3,4-oxadiazole-2-thiol (5b)]
40.5	O=[N+]([O-])c1cccc2nc(Cc3ccc(Cl)cc3Cl)n(Cc3nnc(S)n3-c3ccccc3)c12 [5-{[2-(2,4-Dichlorobenzyl)-7-nitro-1H-benzimidazol-1-yl]methyl}-4-phenyl-4H-1,2,4-triazole-3-thiol (7b)]

SMILES	IC50 [µM]
NNC(=O)Cn1c(Cc2ccc(Cl)cc2Cl)nc2ccc([N+](=O)[O-])cc21 [2-[2-(2,4-Dichlorobenzyl)-6-nitro-1H-benzimidazol-1-yl]acetohydrazide (4b)]	10.5
O=C(Cn1c(Cc2ccc(Cl)cc2Cl)nc2ccccc21)NNC(=S)Nc1ccccc1 [2-{[2-(2,4-Dichlorobenzyl)-1H-benzimidazol-1-yl]acetyl}-N-phenylhydrazinecarbothioamide (6a)]	141
O=C(Cn1c(Cc2ccc(Cl)cc2Cl)nc2ccc([N+](=O)[O-])cc21)NNC(=S)Nc1ccccc1 [2-{[2-(2,4-Dichlorobenzyl)-6-nitro-1H-benzimidazol-1-yl]acetyl}-N-phenyl hydrazinecarbothioamide (6b)]	93
